“Also recorded” adds a separate entry of the source.
Tests used:
[1] = paclitaxel-eluting composite fibers, most of it over 30 days; cited from earlier work
[2] = Rubbing experiment (mechanical drug removal) with glass slide; type: physicochemical; settings: for flutax-1 removed (washed-out) by rubbing: approx. 125 μg deposited, 1 μL DI water, 500 g weight, 60 seconds
Description: Another experiment was performed that targeted possible drug removal from CNT-fitted drug delivery platform by mechanical (e.g., rubbing) actions during its cardiovascular travel. Two types of specimens were used, a bare sheet of latex and a sheet of latex with CNTs anchored on one side. On each specimen, approximately 125 μg of flutax-1 was deposited by successively dropping small volumes of its ethanol solution and allowed to dry. Next, 1 μL of DI water followed by a microscopic 3×1×5/128-inch glass slide was put on each specimen. Finally, with a 500 g weight on top of it, the microscopic slide was moved back and forth a few millimeters at about 1 cm/sec for 60 seconds (FIG. 8). […] After the test, each of the two specimens was dropped in 2 mL of pure ethanol to see if they still had flutax-1 left on them.

[3] = Diffusion of flutax-1 from anchored CNT array; type: physicochemical

| Compound | drug delivered from stent [1] | flutax-1 remaining after rubbing, recovered in 2 mL pure ethanol ([2]; CNT-fitted latex sheet) | flutax-1 removed (washed-out) by rubbing ([2]; CNT-fitted latex sheet) | flutax-1 remaining after rubbing, recovered in 2 mL pure ethanol ([2]; bare latex sheet) | flutax-1 removed (washed-out) by rubbing ([2]; bare latex sheet) | movement (diffusion) of flutax-1 molecules ([3]; in DI water) | movement (diffusion) of flutax-1 molecules, time scale ([3]; in agar) |
| --- | --- | --- | --- | --- | --- | --- | --- |
| CC(=O)O[C@H]1C(=O)[C@@]2(C)[C@H]([C@H](OC(=O)c3ccccc3)[C@]3(O)C[C@H](OC(=O)[C@H](O)[C@@H](NC(=O)c4ccccc4)c4ccccc4)C(C)=C1C3(C)C)[C@]1(OC(C)=O)CO[C@@H]1C[C@@H]2O [paclitaxel] | about 40% | – | – | – | – | – | – |
| CC(=O)O[C@H]1C(=O)[C@@]2(C)C([C@H](OC(=O)c3ccccc3)[C@]3(O)C[C@H](OC(=O)[C@H](O)[C@@H](NC(=O)c4ccccc4)c4ccccc4)C(C)=C1C3(C)C)[C@]1(OC(C)=O)CO[C@@H]1C[C@@H]2OC(=O)[C@H](C)NC(=O)c1ccc(-c2c3ccc(=O)cc-3oc3cc(O)ccc23)c(C(=O)O)c1 (stereo partly shown) [flutax-1] | – | much flutax-1 still remains; also recorded: considerably more flutax-1 released | almost no | no more flutax-1 remains | significant amount; also recorded: considerably higher flutax-1 removal | did not move appreciably | in a matter of minutes |

Reference: patent US8784373B2, “Drug delivery by carbon nanotube arrays” (California Institute of Technology, priority 2010, dated 2014)
